From patent US11826369B2, “Targeting the TLK1/NEK1 axis in prostate cancer” (Board of Supervisors of Louisiana State University and …, priority 2019, dated 2023)

What was measured:
recombinant TLK1B [1] = biological target: T1, recombinant TLK1B (Homo sapiens, UniProt Q9UKI8); assay: High throughput screen with Rad9 peptide substrate / autokinase assay; assay type: biochemical; conditions: library screen
T1 sequence (Q9UKI8 1-549 isoform Q9UKI8-3): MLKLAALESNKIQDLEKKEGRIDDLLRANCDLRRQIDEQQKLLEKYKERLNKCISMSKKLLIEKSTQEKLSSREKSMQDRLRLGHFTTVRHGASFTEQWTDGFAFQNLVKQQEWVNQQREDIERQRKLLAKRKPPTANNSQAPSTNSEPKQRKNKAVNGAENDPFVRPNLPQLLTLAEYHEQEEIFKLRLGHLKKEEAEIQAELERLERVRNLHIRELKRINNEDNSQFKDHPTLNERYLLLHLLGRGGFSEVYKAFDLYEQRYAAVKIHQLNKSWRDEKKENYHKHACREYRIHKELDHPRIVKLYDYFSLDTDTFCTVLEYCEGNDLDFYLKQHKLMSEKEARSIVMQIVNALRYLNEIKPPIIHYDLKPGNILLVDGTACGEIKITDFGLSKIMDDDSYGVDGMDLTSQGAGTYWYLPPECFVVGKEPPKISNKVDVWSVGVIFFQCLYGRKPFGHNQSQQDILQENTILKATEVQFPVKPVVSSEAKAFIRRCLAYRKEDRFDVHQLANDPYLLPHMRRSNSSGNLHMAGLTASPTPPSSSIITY
Experimental: FIGS. 5A and 5B show Inhibition of TLK1/1B autophosphorylation by PTH. […] 293T cells were incubated for 1 hour with PPH. TLK1 was immunoprecipitated, followed by auto-phosphorylation with γ-ATP^32. The blots were then probed with TLK1 antiserum.
Identification of TLK inhibitors. The inventors have screened the Prestwick Library, partially the ChemDiv, and two proprietary libraries (10,000 compounds) for inhibitors of TLK with a high throughput screen with recombinant TLK1B and a Rad9 peptide substrate. […] The inhibition of autokinase activity was confirmed by TCA-precipitable counts with γ32P-ATP (FIG. 5A).

LNCaP cells = assay: Emergence of androgen insensitive (AI) colonies of LNCaP with bicalutamide; assay type: cell-based
[2] = tested on: panel of cell lines, including RWPE1 and hTERT-HME1; assay: Toxicity on a panel of cell lines without doxorubicin; assay type: cell-based; conditions: 15 μM, absence of doxorubicin
456 human kinases = assay: Kinome panel (KinomeScan-DiscoverX); assay type: binding
LNCaP xenografts = assay: LNCaP xenograft model; assay type: in vivo, NOD/SCID mice; conditions: mouse, in vivo
Experimental: Treatment started 19 days after implantation when the tumors measure ˜200 mm^3. Two independent experiment with 5 mice per group were carried out. J54 and Bicalutamide was dissolved in DMSO and diluted in corn oil 1:10 and administered IP bi-weekly. Sectioning and processing of the tissues were carried out in the FWCC Histology Service, using automated processes and equipment to provide uniform and standardized results. Indirect labeling was with ABC Elite: RTU Vectastain Elite Reagent, Vector #PK-7100; DAB: ImmPact DAB, Vector #SK-4105. Light counterstaining was done with hematoxylin. […] Note the weak pNek1 stain in the tumor from mice treated with J54, in contrast to the increase seen with BIC.
LNCaP Xenograft Model and Immunohistochemistry (IHC): All animals used in this study were approved by LSUHSC IACUC and following ARRIVE guidelines. Male NOD/SCID mice (5 per group) were purchased from Jackson labs. LNCaP cells were injected as described earlier. Mice were treated IP bi-weekly with J54 (5 mg/kg body weight—dose estimation derived from pharmacokinetics study) and/or Bicalutamide (100 mg/kg).
The inventors sought to establish if the addition of J54 could suppress the resurgence of tumor growth of LNCaP xenografts and their latter conversion to CRPC. Following formation of sizeable tumors (˜200 mm^3), castration or anti-androgens arrest the progression of LNCaP xenografts for some time (2-3 weeks), while subsequently the tumors start growing again at an accelerated rate which is refractory to ADT (AI). Therefore, the inventors injected LNCaP cells in matrigel in both flanks of NOD-SCID mice, and then randomly assigned them to four treatment groups (n=5 per group×2 independent experiments), as shown in FIGS. 13A-13C. […] The inventors should also point out that the inventors treated the mice with J54 only bi-weekly due to the favorable pharmacokinetics, where maximal plasma concentration of 100 ng/ml ([…]) were reached 2 h after IP injection, and was still present at −6 ng/ml (6 μM) after 24 h (FIG. 18A-18C).

recombinant TLK1B [3] = biological target: T1, recombinant TLK1B; assay: TLK1B kinase assay with Nek1 peptide (ADP Hunter), inhibitor screening; assay type: biochemical; set-up: The full-length, 65 KDa recombinant human TLK1B (hTLK1B) for the in-vitro experiments was expressed and purified from bacteria; made in house; host or cells: bacteria; conditions: tested at 20 μM
Experimental: FIG. 8A-FIG. 25 show further experiments into the present invention, with FIGS. 8A-8G show kinase assays, inhibitor screening, IC50 evaluation and competitive assays. Recombinant TLK1B purified to homogeneity (FIG. 8A) is active in kinase assays (FIG. 8B) and phosphorylates a specific Nek1 peptide (FIG. 8C). […] All experiments were conducted in triplicates. The DiscoverRx ADP Hunter™ (Eurofins DiscoverRx, Fremont, CA, US) Kit was used to measure the generation of ADP resulting from kinase phosphorylation of substrate.
Chemical synthesis of J54 and several different Phenothiazines and Protein expression and purification: Details were explained in section B of supplementary of material and methods. The full-length, 65 KDa recombinant human TLK1B (hTLK1B) for the in-vitro experiments was expressed and purified from bacteria as described earlier.
Results: A new PTH potent inhibitor of TLK1B. A few PTH antipsychotics were identified in a screen the inventors conducted from a compounds library as good inhibitors of TLK1. To find additional inhibitors, recombinant TLK1B was purified (FIG. 8A). The enzymatic activity was determined using the ADP-Hunter reagents and a Nek1 peptide containing the T141 target site. […] Several structurally similar compounds were synthesized as described in the Appendix (and see NMR and MS data FIGS. 10 and 11) and tested at 20 μM (FIGS. 8E and 8F). […] The inventors continued the inventors' characterization of J54.

Compound	inhibition of TLK (recombinant TLK1B [1])	toxicity [2]	other results
CSc1ccc2c(c1)N(CCC1CCCCN1C)c1ccccc1S2 (stereo not shown) [THD, Thioridazine]	strong inhibitors	low toxicity	growth inhibition in androgen containing medium (FCS) (LNCaP cells; 3-9 μM THD): 50%; emergence of AI colonies (LNCaP cells; 3-9 μM THD with bicalutamide, three weeks): few or no AI colonies emerged; conversion of LNCaP cells to androgen independent growth (LNCaP cells; three weeks of culture with bicalutamide): Complete inhibition; specificity on kinome panel (456 human kinases): no other kinase (except TLK2) in the panel was inhibited
CN1CCN(CCCN2c3ccccc3Sc3ccc(C(F)(F)F)cc32)CC1 [TFP, Trifloroperazine]	strong inhibitors	low toxicity	
OCCN1CCN(CCCN2c3ccccc3Sc3ccc(Cl)cc32)CC1 [PPH, Perphenazine]	strong inhibitors	low toxicity	
CC(O)(CS(=O)(=O)c1ccc(F)cc1)C(=O)Nc1ccc(C#N)c(C(F)(F)F)c1 (stereo not shown) [BIC, Bicalutamide, reference compound]			lag before exponential growth following beginning of administration (LNCaP xenografts): 12 days
CN1c2ccccc2Sc2ccccc21 [J56, 10-methyl-10H-phenothiazine]			inhibition of TLK1B compared with standard (recombinant TLK1B [3]): more inhibitory than Staurosporin
CN(C)CCCN1c2ccccc2Sc2ccccc21 [PMZ, Promazine]	strong inhibitors		
